Data from PubChem BioAssay AID1963830 (Molecular Pharmacology Branch, DTP, NCI, 2024).

System: 922993-354-T-J3-PDC complex spheroid viability
Experiment: Anticancer human tumor 922993-354-T-J3-PDC patient-derived endometrial carcinoma cell line growth inhibition [POLQ]
Settings: for IC50: curve of first compound; for viability, T/C: stronger effect = lower value; active means viability on the fitted dose curve at most 10% of control; inactive means the rest
Method in brief: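 PDC + HUVEC + MSC complex spheroids; POLQ inhibitors ± partner drugs; top conc. at/near clinical Cmax, else 10 microM (SN-38 1 microM), half-log dilutions; 37 degrees C, 5% CO2.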

[1] = second compound 0.0316 µM, first compound 0.0316 µM
[2] = second compound 0.0316 µM, first compound 0.1 µM
[3] = second compound 0.0316 µM, first compound 0.316 µM
[4] = second compound 0.0316 µM, first compound 1 µM
[5] = second compound 0.1 µM, first compound 0.0316 µM
[6] = second compound 0.1 µM, first compound 0.1 µM
[7] = second compound 0.1 µM, first compound 0.316 µM
[8] = second compound 0.1 µM, first compound 1 µM
[9] = second compound 0.316 µM, first compound 0.0316 µM
[10] = second compound 0.316 µM, first compound 0.1 µM
[11] = second compound 0.316 µM, first compound 0.316 µM
[12] = second compound 0.316 µM, first compound 1 µM
[13] = second compound 1 µM, first compound 0.0316 µM
[14] = second compound 1 µM, first compound 0.1 µM
[15] = second compound 1 µM, first compound 0.316 µM
[16] = second compound 1 µM, first compound 1 µM
[17] = second compound 3.16 µM, first compound 0.0316 µM
[18] = second compound 3.16 µM, first compound 0.1 µM
[19] = second compound 3.16 µM, first compound 0.316 µM
[20] = second compound 3.16 µM, first compound 1 µM
[21] = second compound 10 µM, first compound 0.0316 µM
[22] = second compound 10 µM, first compound 0.1 µM
[23] = second compound 10 µM, first compound 0.316 µM
[24] = second compound 10 µM, first compound 1 µM
[25] = second compound 0.0316 µM, first compound 3.16 µM
[26] = second compound 0.0316 µM, first compound 10 µM
[27] = second compound 0.1 µM, first compound 3.16 µM
[28] = second compound 0.1 µM, first compound 10 µM
[29] = second compound 0.316 µM, first compound 3.16 µM
[30] = second compound 0.316 µM, first compound 10 µM
[31] = second compound 1 µM, first compound 3.16 µM
[32] = second compound 1 µM, first compound 10 µM
[33] = second compound 3.16 µM, first compound 3.16 µM
[34] = second compound 3.16 µM, first compound 10 µM
[35] = second compound 10 µM, first compound 3.16 µM
[36] = second compound 10 µM, first compound 10 µM
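Further: spheroids exposed to the agents for one week.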
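Wherever viability, T/C is given: 100% = DMSO vehicle control wells.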

COc1cccc(OCCCN)c1-c1cc(Nc2cnc(C#N)cn2)n[nH]1 + COC1C(OC(N)=O)C(O)C(Oc2ccc3c(O)c(NC(=O)c4ccc(O)c(CC=C(C)C)c4)c(=O)oc3c2C)OC1(C)C
active: viability, T/C [4] 9.14% | viability, T/C [8] 8.7% | viability, T/C [12] 9.43% | viability, T/C [16] 8.85% | viability, T/C [20] 9.8% | viability, T/C [24] 8.31%
204 nM: IC50 (second compound 0.0316 µM)
187 nM: IC50 (second compound 0.1 µM)
175 nM: IC50 (second compound 0.316 µM)
159 nM: IC50 (second compound 1 µM) | IC50 (second compound 3.16 µM)
160 nM: IC50 (second compound 10 µM)
inactive: viability, T/C (second compound 0.0316 µM, first compound 0.00316 µM) 92.4% | viability, T/C (second compound 0.0316 µM, first compound 0.01 µM) 94% | viability, T/C [1] 94.3% | viability, T/C [2] 91% | viability, T/C [3] 24.6% | viability, T/C (second compound 0.1 µM, first compound 0.00316 µM) 99.6% | viability, T/C (second compound 0.1 µM, first compound 0.01 µM) 96.5% | viability, T/C [5] 102% | viability, T/C [6] 87.2% | viability, T/C [7] 18.6% | viability, T/C (second compound 0.316 µM, first compound 0.00316 µM) 100% | viability, T/C (second compound 0.316 µM, first compound 0.01 µM) 92.2% | viability, T/C [9] 97.2% | viability, T/C [10] 84.6% | viability, T/C [11] 13.6% | viability, T/C (second compound 1 µM, first compound 0.00316 µM) 108% | viability, T/C (second compound 1 µM, first compound 0.01 µM) 94% | viability, T/C [13] 78.9% | viability, T/C [14] 75.3% | viability, T/C [15] 12.9% | viability, T/C (second compound 3.16 µM, first compound 0.00316 µM) 103% | viability, T/C (second compound 3.16 µM, first compound 0.01 µM) 110% | viability, T/C [17] 95.9% | viability, T/C [18] 70% | viability, T/C [19] 21.3% | viability, T/C (second compound 10 µM, first compound 0.00316 µM) 90.1% | viability, T/C (second compound 10 µM, first compound 0.01 µM) 69.7% | viability, T/C [21] 80.1% | viability, T/C [22] 73.4% | viability, T/C [23] 16.1%

COc1ccc([C@@H](O)c2cc(-c3ncnc4cc(N5CCOCC5)ccc34)c(F)cc2Cl)nn1 + COC1C(OC(N)=O)C(O)C(Oc2ccc3c(O)c(NC(=O)c4ccc(O)c(CC=C(C)C)c4)c(=O)oc3c2C)OC1(C)C
> 10000 nM: IC50 (second compound 0.0316 µM) | IC50 (second compound 0.1 µM) | IC50 (second compound 0.316 µM) | IC50 (second compound 1 µM) | IC50 (second compound 3.16 µM) | IC50 (second compound 10 µM)
inactive: viability, T/C [1] 95.1% | viability, T/C [2] 81.3% | viability, T/C [3] 102% | viability, T/C [4] 94.9% | viability, T/C [25] 85.2% | viability, T/C [26] 58.2% | viability, T/C [5] 105% | viability, T/C [6] 92.8% | viability, T/C [7] 102% | viability, T/C [8] 79.6% | viability, T/C [27] 77.8% | viability, T/C [28] 72.9% | viability, T/C [9] 110% | viability, T/C [10] 97% | viability, T/C [11] 96% | viability, T/C [12] 85.2% | viability, T/C [29] 76.6% | viability, T/C [30] 72.2% | viability, T/C [13] 96% | viability, T/C [14] 110% | viability, T/C [15] 99.5% | viability, T/C [16] 98.1% | viability, T/C [31] 85.8% | viability, T/C [32] 74.8% | viability, T/C [17] 84.4% | viability, T/C [18] 93.1% | viability, T/C [19] 101% | viability, T/C [20] 87.9% | viability, T/C [33] 93.6% | viability, T/C [34] 69.2% | viability, T/C [21] 86.1% | viability, T/C [22] 90% | viability, T/C [23] 107% | viability, T/C [24] 83.8% | viability, T/C [35] 88.6% | viability, T/C [36] 69.8%

CC1COCCN1c1cc(-c2ccnn2C)c2ccnc(-c3ccn[nH]3)c2n1 (stereo not drawn) + Nc1ccc(C#CCN(C(=O)Cc2ncc(C(F)(F)F)cc2C(F)(F)F)c2ccc(F)cc2)nn1
653 nM: IC50 (second compound 0.1 µM)
729 nM: IC50 (second compound 1 µM)
inactive: viability, T/C [1] 107% | viability, T/C [2] 102% | viability, T/C [3] 72.5% | viability, T/C [4] 38.3% | viability, T/C [25] 21% | viability, T/C [26] 13.9% | viability, T/C [5] 109% | viability, T/C [6] 95.5% | viability, T/C [7] 70.7% | viability, T/C [8] 40% | viability, T/C [27] 14.2% | viability, T/C [28] 14.5% | viability, T/C [9] 104% | viability, T/C [10] 93.1% | viability, T/C [11] 72% | viability, T/C [12] 42.1% | viability, T/C [29] 18.9% | viability, T/C [30] 13.8% | viability, T/C [13] 102% | viability, T/C [14] 92.1% | viability, T/C [15] 78.2% | viability, T/C [16] 39.2% | viability, T/C [31] 16.8% | viability, T/C [17] 101% | viability, T/C [18] 89.5% | viability, T/C [19] 69.2% | viability, T/C [20] 33.8% | viability, T/C [33] 19.3% | viability, T/C [34] 11.5% | viability, T/C [21] 99.1% | viability, T/C [22] 80.2% | viability, T/C [23] 64.7% | viability, T/C [24] 23.1% | viability, T/C [35] 17.5% | viability, T/C [36] 13.2%
717 nM: IC50 (second compound 0.316 µM)
449 nM: IC50 (second compound 10 µM)
680 nM: IC50 (second compound 0.0316 µM)
593 nM: IC50 (second compound 3.16 µM)
active: viability, T/C [32] 10.1%

CC(C)n1c(=O)n(C)c2cnc3cc(F)c(-c4ccc(OCCCN5CCCCC5)nc4)cc3c21 + Nc1ccc(C#CCN(C(=O)Cc2ncc(C(F)(F)F)cc2C(F)(F)F)c2ccc(F)cc2)nn1
> 10000 nM: IC50 (second compound 0.0316 µM) | IC50 (second compound 0.1 µM) | IC50 (second compound 0.316 µM) | IC50 (second compound 1 µM) | IC50 (second compound 3.16 µM) | IC50 (second compound 10 µM)
inactive: viability, T/C [1] 101% | viability, T/C [2] 99% | viability, T/C [3] 99.1% | viability, T/C [4] 95.2% | viability, T/C [25] 93.9% | viability, T/C [26] 86.7% | viability, T/C [5] 107% | viability, T/C [6] 103% | viability, T/C [7] 104% | viability, T/C [8] 95.3% | viability, T/C [27] 86.7% | viability, T/C [28] 84.7% | viability, T/C [9] 106% | viability, T/C [10] 107% | viability, T/C [11] 93.9% | viability, T/C [12] 101% | viability, T/C [29] 93.9% | viability, T/C [30] 80.1% | viability, T/C [13] 103% | viability, T/C [14] 95.9% | viability, T/C [15] 99.6% | viability, T/C [16] 98.9% | viability, T/C [31] 94% | viability, T/C [32] 80.4% | viability, T/C [17] 96.9% | viability, T/C [18] 99.4% | viability, T/C [19] 94.6% | viability, T/C [20] 98.1% | viability, T/C [33] 88.6% | viability, T/C [34] 84.1% | viability, T/C [21] 98.8% | viability, T/C [22] 92.8% | viability, T/C [23] 94.9% | viability, T/C [24] 90.6% | viability, T/C [35] 92.5% | viability, T/C [36] 82.1%
